Experimental data from PubChem BioAssay AID256 (DTP/NCI, 2004).
Where “and” joins values, the source holds several entries; their conditions need not be identical. Equal values may be shown once. Toxic doses and inconclusive results are not listed.

Test system: CD2F1 mice, L1210 leukemia ip, survival T/C
Assay: NCI In Vivo Anticancer Drug Screen. Data for tumor model L1210 Leukemia (intraperitoneal) in CD2F1 (CDF1) mice
Settings: higher = longer survival
Outline: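 Tumor-bearing mice (transplanted tumor) were split into treated and vehicle control groups, and the measured endpoint of each treated group was divided by that of its vehicle controls.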

[1] = endpoint: mean survival time, dose: 50.0 mg/kg/injection, schedule: Q01DX009 (ip), vehicle: saline with Tween-80
[2] = endpoint: mean survival time, dose: 100.0 mg/kg/injection, schedule: Q01DX009 (ip), vehicle: saline with Tween-80
[3] = endpoint: mean survival time, dose: 200.0 mg/kg/injection, schedule: Q01DX009 (ip), vehicle: saline with Tween-80
[4] = endpoint: mean survival time, dose: 100.0 mg/kg/injection, schedule: Q04DX003 (ip), vehicle: saline with Tween-80
[5] = endpoint: mean survival time, dose: 200.0 mg/kg/injection, schedule: Q04DX003 (ip), vehicle: saline with Tween-80

C[CH2][Pb]([CH2]C)([CH2]C)[O]C(=O)C=C1CCCC1
T/C (endpoint: mean survival time, dose: 0.63 mg/kg/injection, schedule: Q01DX009 (ip), vehicle: saline): 96 % of control | T/C (endpoint: mean survival time, dose: 1.25 mg/kg/injection, schedule: Q01DX009 (ip), vehicle: saline): 102 % of control | T/C (endpoint: mean survival time, dose: 2.5 mg/kg/injection, schedule: Q01DX009 (ip), vehicle: saline): 95 % of control | T/C (endpoint: mean survival time, dose: 5.0 mg/kg/injection, schedule: Q04DX003 (ip), vehicle: saline with Tween-80): 92 % of control | T/C (endpoint: mean survival time, dose: 10.0 mg/kg/injection, schedule: Q04DX003 (ip), vehicle: saline with Tween-80): 92 % of control

COc1cc2ccnc(Cc3ccc4c(c3)OCO4)c2cc1OC
T/C (endpoint: mean survival time, dose: 100.0 mg/kg/injection, schedule: Q01DX009 (ip), vehicle: saline): 94 % of control | T/C (endpoint: mean survival time, dose: 100.0 mg/kg/injection, schedule: Q04DX003 (ip), vehicle: saline sonified): 95 % of control | T/C (endpoint: mean survival time, dose: 200.0 mg/kg/injection, schedule: Q01DX009 (ip), vehicle: saline): 95 % of control | T/C (endpoint: mean survival time, dose: 200.0 mg/kg/injection, schedule: Q04DX003 (ip), vehicle: saline sonified): 105 % of control | T/C (endpoint: mean survival time, dose: 400.0 mg/kg/injection, schedule: Q01DX009 (ip), vehicle: saline): 95 % of control | T/C (endpoint: mean survival time, dose: 400.0 mg/kg/injection, schedule: Q04DX003 (ip), vehicle: saline sonified): 93 % of control

c1ccc2c3c(ccc2c1)CN1CCCCC1C3 (configuration not stated)
T/C [1]: 102 % of control | T/C [2]: 100 % of control | T/C [3]: 104 % of control

CC12CCC(=O)C1O2 (configuration not stated)
T/C (endpoint: mean survival time, dose: 12.5 mg/kg/injection, schedule: Q04DX002 (ip), vehicle: saline with Tween-80): 103 % of control | T/C (endpoint: mean survival time, dose: 25.0 mg/kg/injection, schedule: Q04DX002 (ip), vehicle: saline with Tween-80): 100 % of control | T/C (endpoint: mean survival time, dose: 50.0 mg/kg/injection, schedule: Q04DX002 (ip), vehicle: saline with Tween-80): 100 % of control

Cc1cccc(Oc2ccc(C(F)(F)F)cc2[N+](=O)[O-])c1
T/C (endpoint: mean survival time, dose: 100.0 mg/kg/injection, schedule: Q01DX001 (ip), vehicle: saline with Tween-80): 98 % of control | T/C (endpoint: mean survival time, dose: 200.0 mg/kg/injection, schedule: Q01DX001 (ip), vehicle: saline with Tween-80): 90 % of control | T/C (endpoint: mean survival time, dose: 400.0 mg/kg/injection, schedule: Q01DX001 (ip), vehicle: saline with Tween-80): 91 % of control

O=C(CCCN1CCC(O)(c2ccc(Cl)cc2)CC1)c1ccc(N2CCC(O)CC2)cc1
T/C (endpoint: mean survival time, dose: 100.0 mg/kg/injection, schedule: Q04DX002 (ip), vehicle: saline with Tween-80): 104 % of control | T/C (endpoint: mean survival time, dose: 200.0 mg/kg/injection, schedule: Q04DX002 (ip), vehicle: saline with Tween-80): 93 % of control | T/C (endpoint: mean survival time, dose: 400.0 mg/kg/injection, schedule: Q04DX002 (ip), vehicle: saline with Tween-80): 93 % of control

O=C(O)c1cc(C(=O)O)c(C(=O)O)cc1C(=O)O.[NH2-].[NH2-].[NH2-].[NH2-].[Pt+2].[Pt+2]
T/C (endpoint: mean survival time, dose: 0.2 mg/kg/injection, schedule: Q04DX003 (ip), vehicle: water): 124 % of control and 106 % of control | T/C (endpoint: mean survival time, dose: 0.39 mg/kg/injection, schedule: Q04DX003 (ip), vehicle: water): 115 % of control and 119 % of control | T/C (endpoint: mean survival time, dose: 2.0 mg/kg/injection, schedule: Q04DX003 (ip), vehicle: water): 98 % of control | T/C (endpoint: mean survival time, dose: 4.0 mg/kg/injection, schedule: Q04DX003 (ip), vehicle: water): 97 % of control | T/C (endpoint: mean survival time, dose: 8.0 mg/kg/injection, schedule: Q04DX003 (ip), vehicle: water): 106 % of control | T/C (endpoint: mean survival time, dose: 16.0 mg/kg/injection, schedule: Q04DX003 (ip), vehicle: water): 110 % of control | T/C (endpoint: median survival time, dose: 0.12 mg/kg/injection, schedule: Q01DX009 (ip), vehicle: water): 97 % of control | T/C (endpoint: median survival time, dose: 0.25 mg/kg/injection, schedule: Q01DX009 (ip), vehicle: water): 97 % of control | T/C (endpoint: median survival time, dose: 0.5 mg/kg/injection, schedule: Q01DX009 (ip), vehicle: water): 97 % of control | T/C (endpoint: median survival time, dose: 1.0 mg/kg/injection, schedule: Q01DX009 (ip), vehicle: water): 92 % of control and 100 % of control and 112 % of control | T/C (endpoint: median survival time, dose: 2.0 mg/kg/injection, schedule: Q01DX009 (ip), vehicle: water): 100 % of control and 101 % of control and 109 % of control | T/C (endpoint: median survival time, dose: 4.0 mg/kg/injection, schedule: Q01DX009 (ip), vehicle: water): 124 % of control and 105 % of control | T/C (endpoint: median survival time, dose: 8.0 mg/kg/injection, schedule: Q01DX009 (ip), vehicle: water): 124 % of control and 111 % of control (2×) | T/C (endpoint: median survival time, dose: 16.0 mg/kg/injection, schedule: Q01DX009 (ip), vehicle: water): 96 % of control | T/C (endpoint: median survival time, dose: 32.0 mg/kg/injection, schedule: Q01DX009 (ip), vehicle: water): 90 % of control

CCNC(=O)OCc1cn2c(c1COC(=O)NCC)CCC2
T/C (endpoint: mean survival time, dose: 0.78 mg/kg/injection, schedule: Q04DX003 (ip), vehicle: other): 101 % of control | T/C (endpoint: mean survival time, dose: 1.56 mg/kg/injection, schedule: Q04DX003 (ip), vehicle: other): 87 % of control | T/C (endpoint: mean survival time, dose: 3.13 mg/kg/injection, schedule: Q04DX003 (ip), vehicle: other): 92 % of control | T/C (endpoint: mean survival time, dose: 6.25 mg/kg/injection, schedule: Q04DX003 (ip), vehicle: other): 92 % of control | T/C (endpoint: mean survival time, dose: 12.5 mg/kg/injection, schedule: Q04DX003 (ip), vehicle: other): 97 % of control

O=C1c2ccccc2C(=O)N1CN1C(=O)c2ccccc2C1=O
T/C [1]: 93 % of control | T/C [2]: 92 % of control | T/C [3]: 93 % of control

NCC(Cl)c1ccccc1 (configuration not stated)
T/C [2]: 97 % of control | T/C [3]: 95 % of control

Cc1ccc(OCC2CO2)cc1 (configuration not stated)
T/C (endpoint: mean survival time, dose: 100.0 mg/kg/injection, schedule: Q01DX001 (ip), vehicle: saline): 104 % of control | T/C (endpoint: mean survival time, dose: 200.0 mg/kg/injection, schedule: Q01DX001 (ip), vehicle: saline): 95 % of control | T/C (endpoint: mean survival time, dose: 400.0 mg/kg/injection, schedule: Q01DX001 (ip), vehicle: saline): 102 % of control

O=C(CC(O)(C(F)(F)F)C(F)(F)F)c1cccc(Cl)c1
T/C [2]: 107 % of control | T/C [4]: 105 % of control | T/C [3]: 103 % of control | T/C [5]: 105 % of control | T/C (endpoint: mean survival time, dose: 400.0 mg/kg/injection, schedule: Q01DX009 (ip), vehicle: saline with Tween-80): 119 % of control | T/C (endpoint: mean survival time, dose: 400.0 mg/kg/injection, schedule: Q04DX003 (ip), vehicle: saline with Tween-80): 110 % of control

COc1ccc(/C(C)=N\NC(=O)c2ccccc2)cc1
T/C [1]: 91 % of control | T/C [2]: 94 % of control | T/C [4]: 98 % of control | T/C [3]: 89 % of control | T/C [5]: 104 % of control

COc1ccc(/C=N/NC(N)=S)cc1
T/C (endpoint: mean survival time, dose: 16.0 mg/kg/injection, schedule: Q01DX008 (iv), vehicle: saline): 98 % of control | T/C (endpoint: mean survival time, dose: 32.0 mg/kg/injection, schedule: Q01DX008 (iv), vehicle: saline): 100 % of control | T/C (endpoint: mean survival time, dose: 32.0 mg/kg/injection, schedule: Q01DX009 (ip), vehicle: saline): 100 % of control and 109 % of control | T/C (endpoint: mean survival time, dose: 64.0 mg/kg/injection, schedule: Q01DX008 (iv), vehicle: saline): 97 % of control | T/C (endpoint: mean survival time, dose: 64.0 mg/kg/injection, schedule: Q01DX009 (ip), vehicle: saline): 98 % of control | T/C (endpoint: mean survival time, dose: 128.0 mg/kg/injection, schedule: Q01DX009 (ip), vehicle: saline): 100 % of control and 109 % of control | T/C (endpoint: mean survival time, dose: 256.0 mg/kg/injection, schedule: Q01DX009 (ip), vehicle: saline): 104 % of control and 112 % of control

COc1cc2c(c(OC)c1O)-c1ccc(OC)c(=O)cc1[C@@H](NC(=O)C(F)(F)F)CC2
T/C (endpoint: median survival time, dose: 0.62 mg/kg/injection, schedule: Q01DX009 (ip), vehicle: Klucel (hydroxypropylcellulose) (HPC)): 118 % of control | T/C (endpoint: median survival time, dose: 1.25 mg/kg/injection, schedule: Q01DX009 (ip), vehicle: Klucel (hydroxypropylcellulose) (HPC)): 123 % of control | T/C (endpoint: median survival time, dose: 2.5 mg/kg/injection, schedule: Q01DX005 (ip), vehicle: Klucel (hydroxypropylcellulose) (HPC)): 164 % of control | T/C (endpoint: median survival time, dose: 3.0 mg/kg/injection, schedule: Q01DX005 (ip), vehicle: Klucel (hydroxypropylcellulose) (HPC)): 175 % of control | T/C (endpoint: median survival time, dose: 5.0 mg/kg/injection, schedule: Q01DX005 (ip), vehicle: Klucel (hydroxypropylcellulose) (HPC)): 171 % of control | T/C (endpoint: median survival time, dose: 8.32 mg/kg/injection, schedule: Q01DX005 (ip), vehicle: Klucel (hydroxypropylcellulose) (HPC)): 167 % of control | T/C (endpoint: median survival time, dose: 10.0 mg/kg/injection, schedule: Q01DX005 (ip), vehicle: Klucel (hydroxypropylcellulose) (HPC)): 160 % of control | T/C (endpoint: median survival time, dose: 13.88 mg/kg/injection, schedule: Q01DX005 (ip), vehicle: Klucel (hydroxypropylcellulose) (HPC)): 164 % of control
